Tests used:
Ramos = experiment: Growth inhibition of human Ramos cells; assay type: functional; settings: Homo sapiens, Ramos
[1] = target: Activin receptor type-1 (Homo sapiens) (UniProt Q04771); experiment: Inhibition of wild-type human ACVR1 (C188 to C509 residues) expressed in bacterial expression system assessed as residual activity at 1 uM by Kinomescan method relative to control
[2] = target: NUAK family SNF1-like kinase 1 (Homo sapiens) (UniProt O60285); experiment: Inhibition of wild-type human partial length ARK5 (E25 to I332 residues) expressed in bacterial expression system assessed as residual activity at 1 uM by Kinomescan method relative to control
NUAK family SNF1-like kinase 1 (Homo sapiens), sequence (O60285 whole entry, the tested form may be a part): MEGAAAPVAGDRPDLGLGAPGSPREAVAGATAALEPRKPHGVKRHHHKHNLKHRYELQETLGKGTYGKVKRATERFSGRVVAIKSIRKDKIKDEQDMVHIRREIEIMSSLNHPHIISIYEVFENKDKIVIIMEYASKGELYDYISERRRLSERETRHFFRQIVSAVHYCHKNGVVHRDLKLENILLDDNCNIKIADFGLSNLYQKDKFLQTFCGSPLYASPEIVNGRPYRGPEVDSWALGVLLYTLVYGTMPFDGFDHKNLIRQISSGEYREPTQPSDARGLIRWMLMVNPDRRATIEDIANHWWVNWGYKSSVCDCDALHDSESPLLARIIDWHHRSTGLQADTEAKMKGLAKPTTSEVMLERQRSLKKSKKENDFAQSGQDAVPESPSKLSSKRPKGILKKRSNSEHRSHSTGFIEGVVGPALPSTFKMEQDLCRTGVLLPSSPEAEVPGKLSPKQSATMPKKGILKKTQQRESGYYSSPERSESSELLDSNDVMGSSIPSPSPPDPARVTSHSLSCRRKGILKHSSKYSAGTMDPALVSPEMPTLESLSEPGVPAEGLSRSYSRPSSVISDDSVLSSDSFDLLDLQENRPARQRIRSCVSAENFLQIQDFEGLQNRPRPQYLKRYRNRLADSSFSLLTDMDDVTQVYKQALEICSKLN

[3] = target: Calcium/calmodulin-dependent protein kinase type II subunit gamma (Homo sapiens) (UniProt Q13555); experiment: Inhibition of wild-type human partial length CAMK2G (R9 to A303 residues) expressed in bacterial expression system assessed as residual activity at 1 uM by Kinomescan method relative to control
Calcium/calmodulin-dependent protein kinase type II subunit gamma (Homo sapiens), sequence (Q13555 whole entry, the tested form may be a part, canonical isoform): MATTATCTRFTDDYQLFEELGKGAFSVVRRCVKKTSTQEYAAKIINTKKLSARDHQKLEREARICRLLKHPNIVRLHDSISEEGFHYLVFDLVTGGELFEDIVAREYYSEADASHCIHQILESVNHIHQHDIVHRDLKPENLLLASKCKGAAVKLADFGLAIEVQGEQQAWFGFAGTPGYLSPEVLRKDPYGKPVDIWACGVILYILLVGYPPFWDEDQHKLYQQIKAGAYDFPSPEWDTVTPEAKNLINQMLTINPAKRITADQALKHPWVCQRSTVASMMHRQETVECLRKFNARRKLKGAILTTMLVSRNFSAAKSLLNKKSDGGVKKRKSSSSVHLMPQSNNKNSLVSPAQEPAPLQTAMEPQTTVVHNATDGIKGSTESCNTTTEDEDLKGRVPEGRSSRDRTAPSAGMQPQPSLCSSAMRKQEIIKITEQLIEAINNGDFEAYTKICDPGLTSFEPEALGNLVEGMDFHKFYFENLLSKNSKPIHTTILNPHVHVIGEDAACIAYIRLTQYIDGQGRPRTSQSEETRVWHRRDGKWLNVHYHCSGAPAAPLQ

[4] = target: Casein kinase I isoform epsilon (Homo sapiens) (UniProt P49674); experiment: Inhibition of wild-type human full length CSNK1E (M1 to K416 residues) expressed in bacterial expression system assessed as residual activity at 1 uM by Kinomescan method relative to control
[5] = target: Dual specificity tyrosine-phosphorylation-regulated kinase 1B (Homo sapiens) (UniProt Q9Y463); experiment: Inhibition of wild-type human full length DYRK1B (M1 to S629 residues) expressed in bacterial expression system assessed as residual activity at 1 uM by Kinomescan method relative to control
[6] = test system: Epidermal growth factor receptor (Homo sapiens), P00533 [UNDEFINED MUTATION]; experiment: Inhibition of human partial length EGFR S752-I759del mutant expressed in bacterial expression system assessed as residual activity at 1 uM by Kinomescan method relative to control
Epidermal growth factor receptor (Homo sapiens), P00533 [UNDEFINED MUTATION], sequence (P00533 whole entry, looked up, stated change not applied, the tested form may be a part): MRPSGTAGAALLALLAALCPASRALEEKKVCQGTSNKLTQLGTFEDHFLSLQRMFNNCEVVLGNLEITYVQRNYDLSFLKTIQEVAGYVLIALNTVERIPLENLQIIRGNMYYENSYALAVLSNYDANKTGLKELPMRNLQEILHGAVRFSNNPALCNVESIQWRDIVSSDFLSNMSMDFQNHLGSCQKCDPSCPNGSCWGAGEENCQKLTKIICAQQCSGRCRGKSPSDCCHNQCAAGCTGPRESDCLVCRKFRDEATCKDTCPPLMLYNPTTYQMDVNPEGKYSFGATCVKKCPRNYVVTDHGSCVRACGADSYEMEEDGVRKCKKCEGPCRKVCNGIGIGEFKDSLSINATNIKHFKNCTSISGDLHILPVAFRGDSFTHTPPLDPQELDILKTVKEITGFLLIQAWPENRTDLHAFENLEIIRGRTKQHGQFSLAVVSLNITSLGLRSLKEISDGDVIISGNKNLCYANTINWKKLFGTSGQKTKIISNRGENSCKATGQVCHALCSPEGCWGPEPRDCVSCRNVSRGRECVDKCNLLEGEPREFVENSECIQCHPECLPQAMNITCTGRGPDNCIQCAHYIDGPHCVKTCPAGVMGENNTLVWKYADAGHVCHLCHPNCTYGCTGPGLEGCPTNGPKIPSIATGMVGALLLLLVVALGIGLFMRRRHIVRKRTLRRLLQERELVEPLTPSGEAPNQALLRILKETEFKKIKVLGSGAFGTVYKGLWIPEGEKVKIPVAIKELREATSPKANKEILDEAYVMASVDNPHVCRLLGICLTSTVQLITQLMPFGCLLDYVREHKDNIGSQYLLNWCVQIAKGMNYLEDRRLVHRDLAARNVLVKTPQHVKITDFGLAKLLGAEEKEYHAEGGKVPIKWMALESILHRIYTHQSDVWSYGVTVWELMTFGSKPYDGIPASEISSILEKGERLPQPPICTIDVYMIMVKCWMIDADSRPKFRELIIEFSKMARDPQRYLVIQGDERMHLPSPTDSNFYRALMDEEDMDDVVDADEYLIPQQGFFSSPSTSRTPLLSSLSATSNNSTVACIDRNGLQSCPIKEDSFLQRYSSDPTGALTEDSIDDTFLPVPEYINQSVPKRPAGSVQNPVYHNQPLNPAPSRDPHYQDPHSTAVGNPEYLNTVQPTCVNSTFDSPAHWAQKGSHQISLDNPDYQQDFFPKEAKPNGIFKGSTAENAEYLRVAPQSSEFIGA

[7] = target: Receptor tyrosine-protein kinase erbB-2 (Homo sapiens) (UniProt P04626); experiment: Inhibition of wild-type human partial length ERBB2 (K646 to V1225 residues) expressed in mammalian expression system assessed as residual activity at 1 uM by Kinomescan method relative to control
[8] = target: Tyrosine-protein kinase Fes/Fps (Homo sapiens) (UniProt P07332); experiment: Inhibition of wild-type human partial length FES (I527 to R822 residues) expressed in bacterial expression system assessed as residual activity at 1 uM by Kinomescan method relative to control
[9] = test system: Receptor-type tyrosine-protein kinase FLT3 (Homo sapiens), P36888 [K663Q]; experiment: Inhibition of human partial length FLT3 K663Q mutant (V592 to Y969 residues) expressed in bacterial expression system assessed as residual activity at 1 uM by Kinomescan method relative to control
[10] = target: Beta-adrenergic receptor kinase 1 (Homo sapiens) (UniProt P25098); experiment: Inhibition of wild-type human full length GRK2 (M1 to L689 residues) expressed in mammalian expression system assessed as residual activity at 1 uM by Kinomescan method relative to control
[11] = target: LIM domain kinase 1 (Homo sapiens) (UniProt P53667); experiment: Inhibition of wild-type human full length LIMK1 (M1 to D647 residues) expressed in bacterial expression system assessed as residual activity at 1 uM by Kinomescan method relative to control
[12] = test system: Hepatocyte growth factor receptor (Homo sapiens), P08581 [M1250T]; experiment: Inhibition of human partial length MET M1250T mutant (D1010 to S1367 residues) expressed in bacterial expression system assessed as residual activity at 1 uM by Kinomescan method relative to control
[13] = target: Dual specificity mitogen-activated protein kinase kinase 7 (Homo sapiens) (UniProt O14733); experiment: Inhibition of wild-type human full length MKK7 (M1 to R419 residues) expressed in mammalian expression system assessed as residual activity at 1 uM by Kinomescan method relative to control
Dual specificity mitogen-activated protein kinase kinase 7 (Homo sapiens), sequence (O14733 whole entry, the tested form may be a part): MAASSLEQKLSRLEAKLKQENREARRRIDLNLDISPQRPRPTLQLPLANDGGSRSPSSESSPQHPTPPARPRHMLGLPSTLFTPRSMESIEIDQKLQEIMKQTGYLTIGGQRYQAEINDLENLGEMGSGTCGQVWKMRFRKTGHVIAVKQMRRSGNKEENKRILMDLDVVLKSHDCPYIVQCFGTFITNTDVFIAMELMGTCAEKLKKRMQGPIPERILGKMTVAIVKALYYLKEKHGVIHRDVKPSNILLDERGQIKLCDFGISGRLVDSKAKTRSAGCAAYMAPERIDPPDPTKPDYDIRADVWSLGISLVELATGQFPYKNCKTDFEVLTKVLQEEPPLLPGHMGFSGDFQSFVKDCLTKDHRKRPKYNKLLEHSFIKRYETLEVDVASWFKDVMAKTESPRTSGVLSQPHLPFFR

[14] = target: Serine/threonine-protein kinase 24 (Homo sapiens) (UniProt Q9Y6E0); experiment: Inhibition of wild-type human partial length MST3 (A30 to S311 residues) expressed in bacterial expression system assessed as residual activity at 1 uM by Kinomescan method relative to control
[15] = target: Serine/threonine-protein kinase OSR1 (Homo sapiens) (UniProt O95747); experiment: Inhibition of wild-type human full length OSR1 (M1 to S527 residues) expressed in mammalian expression system assessed as residual activity at 1 uM by Kinomescan method relative to control
[16] = test system: Phosphatidylinositol 4,5-bisphosphate 3-kinase catalytic subunit alpha isoform (Homo sapiens), P42336 [H1047L]; experiment: Inhibition of human partial length PIK3CA H1047L mutant (R108 to N1068 residues) expressed in mammalian expression system assessed as residual activity at 1 uM by Kinomescan method relative to control
[17] = target: Serine/threonine-protein kinase pim-2 (Homo sapiens) (UniProt Q9P1W9); experiment: Inhibition of wild-type human partial length PIM2 (M1 to E291 residues) expressed in bacterial expression system assessed as residual activity at 1 uM by Kinomescan method relative to control
[18] = target: Phosphatidylinositol 5-phosphate 4-kinase type-2 beta (Homo sapiens) (UniProt P78356); experiment: Inhibition of wild-type human full length PIP5K2B (M1 to T416 residues) expressed in bacterial expression system assessed as residual activity at 1 uM by Kinomescan method relative to control
[19] = target: Rho-associated protein kinase 1 (Homo sapiens) (UniProt Q13464); experiment: Inhibition of wild-type human partial length ROCK1 (M1 to R415 residues) expressed in mammalian expression system assessed as residual activity at 1 uM by Kinomescan method relative to control
[20] = target: Serine/threonine-protein kinase TAO2 (Homo sapiens) (UniProt Q9UL54); experiment: Inhibition of wild-type human partial length TAOK2 (M1 to A320 residues) expressed in mammalian expression system assessed as residual activity at 1 uM by Kinomescan method relative to control
[21] = target: Testis-specific serine/threonine-protein kinase 1 (Homo sapiens) (UniProt Q9BXA7); experiment: Inhibition of wild-type human full length TSSK1B (M1 to Q367 residues) expressed in bacterial expression system assessed as residual activity at 1 uM by Kinomescan method relative to control
Testis-specific serine/threonine-protein kinase 1 (Homo sapiens), sequence (Q9BXA7 whole entry, the tested form may be a part): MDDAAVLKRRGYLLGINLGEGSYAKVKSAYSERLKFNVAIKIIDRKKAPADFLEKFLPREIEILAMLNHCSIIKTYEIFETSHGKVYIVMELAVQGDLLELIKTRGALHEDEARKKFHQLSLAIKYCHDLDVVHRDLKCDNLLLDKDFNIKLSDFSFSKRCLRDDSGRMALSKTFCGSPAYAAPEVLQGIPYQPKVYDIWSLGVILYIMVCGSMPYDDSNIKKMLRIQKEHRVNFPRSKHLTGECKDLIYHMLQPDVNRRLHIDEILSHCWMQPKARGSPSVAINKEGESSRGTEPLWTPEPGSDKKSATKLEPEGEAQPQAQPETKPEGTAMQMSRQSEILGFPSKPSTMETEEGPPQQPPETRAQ

[22] = target: Non-receptor tyrosine-protein kinase TYK2 (Homo sapiens) (UniProt P29597); experiment: Inhibition of wild-type human partial length TYK2 JH2 pseudokinase domain (G556 to D888 residues) expressed in mammalian expression system assessed as residual activity at 1 uM by Kinomescan method relative to control
Non-receptor tyrosine-protein kinase TYK2 (Homo sapiens), sequence (P29597 whole entry, the tested form may be a part): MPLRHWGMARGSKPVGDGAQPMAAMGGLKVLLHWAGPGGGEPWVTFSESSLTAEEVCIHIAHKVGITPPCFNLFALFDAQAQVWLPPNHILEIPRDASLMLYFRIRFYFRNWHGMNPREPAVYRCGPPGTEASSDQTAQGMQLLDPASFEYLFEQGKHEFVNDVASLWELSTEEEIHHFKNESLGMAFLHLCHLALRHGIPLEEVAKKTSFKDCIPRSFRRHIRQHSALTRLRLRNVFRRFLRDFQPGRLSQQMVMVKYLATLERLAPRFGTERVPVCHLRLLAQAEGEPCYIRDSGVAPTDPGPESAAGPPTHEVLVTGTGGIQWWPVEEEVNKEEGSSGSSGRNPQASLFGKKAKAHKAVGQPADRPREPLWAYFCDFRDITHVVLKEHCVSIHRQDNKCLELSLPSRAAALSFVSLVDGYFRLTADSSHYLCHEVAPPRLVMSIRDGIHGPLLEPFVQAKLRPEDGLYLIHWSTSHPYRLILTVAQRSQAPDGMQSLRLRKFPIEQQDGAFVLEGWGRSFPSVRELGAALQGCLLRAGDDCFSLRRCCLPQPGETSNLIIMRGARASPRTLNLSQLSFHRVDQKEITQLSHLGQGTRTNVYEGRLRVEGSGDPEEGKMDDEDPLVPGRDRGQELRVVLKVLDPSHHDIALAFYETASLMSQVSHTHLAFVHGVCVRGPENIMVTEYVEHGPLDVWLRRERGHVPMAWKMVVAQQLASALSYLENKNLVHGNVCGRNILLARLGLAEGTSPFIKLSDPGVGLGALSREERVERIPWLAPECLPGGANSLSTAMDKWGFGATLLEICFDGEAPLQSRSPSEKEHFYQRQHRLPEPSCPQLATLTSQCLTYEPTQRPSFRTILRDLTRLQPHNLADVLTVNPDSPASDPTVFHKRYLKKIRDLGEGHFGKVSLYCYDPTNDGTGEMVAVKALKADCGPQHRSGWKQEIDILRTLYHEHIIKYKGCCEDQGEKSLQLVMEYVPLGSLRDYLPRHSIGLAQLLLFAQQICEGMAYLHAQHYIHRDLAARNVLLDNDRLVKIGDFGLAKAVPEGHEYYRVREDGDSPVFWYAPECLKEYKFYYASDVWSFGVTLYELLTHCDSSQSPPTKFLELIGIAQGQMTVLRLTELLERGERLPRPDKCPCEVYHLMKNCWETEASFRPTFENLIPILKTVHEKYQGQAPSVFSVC

[23] = target: Phosphatidylinositol 3-kinase catalytic subunit type 3 (Homo sapiens) (UniProt Q8NEB9); experiment: Inhibition of wild-type human partial length VPS34 (S282 to H879 residues) expressed in mammalian expression system assessed as residual activity at 1 uM by Kinomescan method relative to control
[24] = target: Mitogen-activated protein kinase kinase kinase 19 (Homo sapiens) (UniProt Q56UN5); experiment: Inhibition of wild-type human partial length YSK4 (T1019 to H1328 residues) expressed in mammalian expression system assessed as residual activity at 1 uM by Kinomescan method relative to control

Activin receptor type-1 (Homo sapiens), sequence (Q04771 whole entry, the tested form may be a part): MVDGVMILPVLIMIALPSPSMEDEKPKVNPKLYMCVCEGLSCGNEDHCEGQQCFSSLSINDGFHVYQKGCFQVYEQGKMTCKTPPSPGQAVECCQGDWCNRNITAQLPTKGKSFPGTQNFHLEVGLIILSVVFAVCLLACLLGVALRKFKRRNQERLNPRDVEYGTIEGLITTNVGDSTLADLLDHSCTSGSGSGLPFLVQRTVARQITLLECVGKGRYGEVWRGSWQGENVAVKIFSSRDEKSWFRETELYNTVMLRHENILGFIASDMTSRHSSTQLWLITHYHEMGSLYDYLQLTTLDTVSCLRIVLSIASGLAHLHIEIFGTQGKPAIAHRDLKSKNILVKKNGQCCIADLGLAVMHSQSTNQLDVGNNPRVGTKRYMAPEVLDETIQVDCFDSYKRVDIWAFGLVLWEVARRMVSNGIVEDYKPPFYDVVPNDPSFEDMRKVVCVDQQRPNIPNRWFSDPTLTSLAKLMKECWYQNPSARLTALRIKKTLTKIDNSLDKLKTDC

Compound `C=CC(=O)Nc1cc(Nc2cc(-c3cccc(NC(=O)c4ccc(C(C)(C)C)cc4)c3C)cn(C)c2=O)ccc1C(=O)N1CCOCC1` has a GI50 (Ramos) of 3.5 µM, an Activity [1] of 97% and an Activity [2] of 100%. The Activity [3] was 100%, the Activity [4] was 100% and the Activity [5] was 74%. For the same compound, the Activity [6] was 97%, the Activity [7] was 97% and the Activity [8] was 84%. It also gave an Activity [9] of 94%, an Activity [10] of 100% and an Activity [11] of 86%. For the same compound, the Activity [12] was 98%, the Activity [13] was 100% and the Activity [14] was 98%. It also gave an Activity [15] of 100%, an Activity [16] of 56% and an Activity [17] of 90%. For the same compound, the Activity [18] was 82%, the Activity [19] was 100% and the Activity [20] was 89%. The Activity [21] was 98%, the Activity [22] was 86% and the Activity [23] was 90%. It also gave an Activity [24] of 100%.

— ChEMBL document CHEMBL4024706 (Eur J Med Chem, 2017)
